biological target: HSP90 (Homo sapiens, UniProt P07900); assay: HSP90 inhibition (HSP90 IC50); assay type: biochemical

Structure (SMILES) | IC50 [µM]
Cc1cc(C(N)=O)c(NCC2CCCC2)cc1C(=O)N[C@H]1C[C@H]2CC[C@@H](C1)N2c1ccc(C(=O)C2CC2)cn1 [5-[(cyclopentylmethyl)amino]-N-{8-[5-(cyclopropylcarbonyl)pyridin-2-yl]-8-azabicyclo[3.2.1]oct-3-endo-yl}-2-methylbenzene-1,4-dicarboxamide] | < 0.5
NC(=O)c1cc(Br)c(C(=O)N[C@H]2C[C@H]3CC[C@@H](C2)N3c2ccc(C(=O)C3CC3)cn2)cc1N [5-amino-2-bromo-N-{8-[5-(cyclopropylcarbonyl)pyridin-2-yl]-8-azabicyclo[3.2.1]oct-3-endo-yl}benzene-1,4-dicarboxamide] | < 0.5
Cc1cc(C(N)=O)c(N)cc1C(=O)N[C@H]1C[C@H]2CC[C@@H](C1)N2c1ccc(C(=O)C2CC2)cn1 [5-amino-N-{8-[5-(cyclopropylcarbonyl)pyridin-2-yl]-8-azabicyclo[3.2.1]oct-3-endo-yl}-2-methylbenzene-1,4-dicarboxamide] | < 0.5
CC[C@@H](C)Nc1c(C(N)=O)cc(Br)c(C(=O)NC2CC3CCC(C2)N3c2ccc(C(=O)C3CC3)cn2)c1Cl (stereo partly drawn) [5-bromo-3-chloro-N4-{8-[5-(cyclopropylcarbonyl)pyridin-2-yl]-8-azabicyclo[3.2.1]oct-3-endo-yl}-2-{[(1R)-1-methylpropyl]amino}benzene-1,4-dicarboxamide] | < 0.5
Cc1cccc(C(=O)N[C@H]2C[C@H]3CC[C@@H](C2)N3c2ccc(C(=O)NCc3ccccc3)cn2)c1C [6-(3-endo-{[(2,3-dimethylphenyl)carbonyl]amino}-8-azabicyclo[3.2.1]oct-8-yl)-N-(phenylmethyl)pyridine-3-carboxamide] | 2 to 10
Cc1c(N)cccc1C(=O)N[C@H]1C[C@H]2CC[C@@H](C1)N2c1ccc(C(=O)NCc2ccccc2)cn1 [6-(3-endo-{[(3-amino-2-methylphenyl)carbonyl]amino}-8-azabicyclo[3.2.1]oct-8-yl)-N-(phenylmethyl)pyridine-3-carboxamide] | 2 to 10
Cc1c(O)cccc1C(=O)NC1CC2CCC(C1)N2c1ccc(C(=O)NCc2ccccc2)cn1 (stereo not drawn) [6-(3-endo-{[(3-hydroxy-2-methylphenyl)carbonyl]amino}-8-azabicyclo[3.2.1]oct-8-yl)-N-(phenylmethyl)pyridine-3-carboxamide] | 1 to 2
Cc1c(O)cccc1C(=O)NC1CC2CCC(C1)N2c1ccc(C(=O)N[C@@H](C)c2ccc(N3CCN(C)CC3)cc2)cn1 (stereo partly drawn) [6-(3-endo-{[(3-hydroxy-2-methylphenyl)carbonyl]amino}-8-azabicyclo[3.2.1]oct-8-yl)-N-{(1S)-1-[4-(4-methylpiperazin-1-yl)phenyl]ethyl}pyridine-3-carboxamide] | < 0.5
Cc1cc(N)ccc1C(=O)N[C@H]1C[C@H]2CC[C@@H](C1)N2c1ccc(C(N)=O)cn1 [6-(3-endo-{[(4-amino-2-methylphenyl)carbonyl]amino}-8-azabicyclo[3.2.1]oct-8-yl)pyridine-3-carboxamide] | 2 to 10
COc1cccc(C(=O)N[C@H]2C[C@H]3CC[C@@H](C2)N3c2ccc(C(N)=O)cn2)c1CCCCN(C)C [6-(3-endo[({2-[4-(dimethylamino)butyl]-3-(methyloxy)phenyl}carbonyl)amino]-8-azabicyclo[3.2.1]oct-8-yl}pyridine-3-carboxamide] | 1 to 2
COc1cccc(C(=O)N[C@H]2C[C@H]3CC[C@@H](C2)N3c2ccc(C(=O)NCc3cccs3)cn2)c1C [6-[3-endo({[2-methyl-3-(methyloxy)phenyl]carbonyl}amino)-8-azabicyclo[3.2.1]oct-8-yl]-N-(2-thienylmethyl)pyridine-3-carboxamide] | < 0.5
COc1cccc(C(=O)N[C@H]2C[C@H]3CC[C@@H](C2)N3c2ccc(C(=O)NCc3ccc(C)cc3)cn2)c1C [6-[3-endo-({(2-methyl-3-(methyloxy)phenyl]carbonyl}amino)-8-azabicyclo[3.2.1]oct-8-yl]-N-[(4-methylphenyl)methyl]pyridine-3-carboxamide] | < 0.5
O=C(NCc1ccccc1)c1ccc(N2[C@@H]3CC[C@H]2C[C@@H](NC(=O)c2ccc(C(O)CO)cc2)C3)nc1 (stereo partly drawn) [6-[3-endo-({(4-(1,2-dihydroxyethyl)phenyl]carbonyl}amino)-8-azabicyclo[3.2.1]oct-8-yl]-N-(phenylmethyl)pyridine-3-carboxamide] | 1 to 2
COc1cccc(C(=O)N[C@H]2C[C@H]3CC[C@@H](C2)N3c2ccc(C(N)=O)cn2)c1CC(O)CO (stereo partly drawn) [6-[3-endo-({[2-(2,3-dihydroxypropyl)-3-(methyloxy)phenyl]carbonyl}amino)-8-azabicyclo[3.2.1]oct-8-yl]pyridine-3-carboxamide] | 2 to 10
COc1cccc(C(=O)N[C@H]2C[C@H]3CC[C@@H](C2)N3c2ccc(C(=O)NCc3ccccc3)cn2)c1CCCO [6-[3-endo-({[2-(3-hydroxypropyl)-3-(methyloxy)phenyl]carbonyl}amino)-8-azabicyclo[3.2.1]oct-8-yl]-N-(phenylmethyl)pyridine-3-carboxamide] | < 0.5
COc1cccc(C(=O)N[C@H]2C[C@H]3CC[C@@H](C2)N3c2ccc(C(N)=O)cn2)c1CCCO [6-[3-endo-({[2-(3-hydroxypropyl)-3-(methyloxy)phenyl]carbonyl}amino)-8-azabicyclo[3.2.1]oct-8-yl]pyridine-3-carboxamide] | 1 to 2

Structure (SMILES) | IC50 [µM]
COc1cccc(C(=O)N[C@H]2C[C@H]3CC[C@@H](C2)N3c2ccc(C(N)=O)cn2)c1C#CCCO [6-[3-endo-({[2-(4-hydroxybut-1-yn-1-yl)-3-(methyloxy)phenyl]carbonyl}amino)-8-azabicyclo[3.2.1]oct-8-yl]pyridine-3-carboxamide] | 2 to 10
COc1cccc(C(=O)N[C@H]2C[C@H]3CC[C@@H](C2)N3c2ccc(C(N)=O)cn2)c1CCCCO [6-[3-endo-({[2-(4-hydroxybutyl)-3-(methyloxy)phenyl]carbonyl}amino)-8-azabicyclo[3.2.1]oct-8-yl]pyridine-3-carboxamide] | 0.5 to 0.999
COc1cccc(C(=O)N[C@H]2C[C@H]3CC[C@@H](C2)N3c2ccc(C(=O)NCc3ccccc3)cn2)c1Br [6-[3-endo-({[2-bromo-3-(methyloxy)phenyl]carbonyl}amino)-8-azabicyclo[3.2.1]oct-8-yl]-N-(phenylmethyl)pyridine-3-carboxamide] | 1 to 2
COc1cccc(C(=O)N[C@H]2C[C@H]3CC[C@@H](C2)N3c2ccc(C(N)=O)cn2)c1Cl [6-[3-endo-({[2-chloro-3-(methyloxy)phenyl]carbonyl}amino)-8-azabicyclo[3.2.1]oct-8-yl]pyridine-3-carboxamide] | 2 to 10
COc1cccc(C(=O)N[C@H]2C[C@H]3CC[C@@H](C2)N3c2ccc(C(N)=O)cn2)c1F [6-[3-endo-({[2-fluoro-3-(methyloxy)phenyl]carbonyl}amino)-8-azabicyclo[3.2.1]oct-8-yl]pyridine-3-carboxamide] | 2 to 10
COc1cccc(C(=O)N[C@H]2C[C@H]3CC[C@@H](C2)N3c2ccc(C(=O)NCc3ccccc3)cn2)c1I [6-[3-endo-({[2-iodo-3-(methyloxy)phenyl]carbonyl}amino)-8-azabicyclo[3.2.1]oct-8-yl]-N-(phenylmethyl)pyridine-3-carboxamide] | 2 to 10
COc1ccc(C(=O)N[C@H]2C[C@H]3CC[C@@H](C2)N3c2ccc(C(=O)NCc3ccccc3)cn2)c(C)c1OC [6-[3-endo-({[2-methyl-3,4-bis(methyloxy)phenyl]carbonyl}amino)-8-azabicyclo[3.2.1]oct-8-yl]-N-(phenylmethyl)pyridine-3-carboxamide] | 2 to 10
COc1cccc(C(=O)NC2CC3CCC(C2)N3c2ccc(C(=O)NC3CCN(c4ccccc4)CC3)cn2)c1C (stereo not drawn) [6-[3-endo-({[2-methyl-3-(methyboxy)phenyl]carbonyl}amino)-8-azabicyclo[3.2.1]oct-8-yl]-N-(1-phenylpiperidin-4-yl)pyridine-3-carboxamide] | 2 to 10
CNc1cccc(C(=O)NC2CC3CCC(C2)N3c2ccc(C(=O)N[C@@H](C)c3ccc(N4CCN(C)CC4)cc3)cn2)c1C (stereo partly drawn) [6-[3-endo-({[2-methyl-3-(methylamino)phenyl]carbonyl}amino)-8-azabicyclo[3.2.1]oct-8-yl]-N-{(1S)-1-[4-(4-methylpiperazin-1-yl)phenyl]ethyl}pyridine-3-carboxamide] | < 0.5
C#CCNC(=O)c1ccc(N2[C@@H]3CC[C@H]2C[C@@H](NC(=O)c2cccc(OC)c2C)C3)nc1 [6-[3-endo-({[2-methyl-3-(methyloxy)phenyl)carbonyl}amino)-8-azabicyclo(3.2.1]oct-8-yl]-N-prop-2-yn-1-ylpyridine-3-carboxamide] | 1 to 2
COc1cccc(C(=O)N[C@H]2C[C@H]3CC[C@@H](C2)N3c2ccc(C(=O)NC3CCN(C)CC3)cn2)c1C [6-[3-endo-({[2-methyl-3-(methyloxy)phenyl]carbonyl}amino)-8-azabicyclo[3.2.1]oct-8-yl]-N-(1-methylpiperidin-4-yl)pyridine-3-carboxamide] | 0.5 to 0.999
COc1cccc(C(=O)N[C@H]2C[C@H]3CC[C@@H](C2)N3c2ccc(C(=O)Nc3ccccc3C)cn2)c1C [6-[3-endo-({[2-methyl-3-(methyloxy)phenyl]carbonyl}amino)-8-azabicyclo[3.2.1]oct-8-yl]-N-(2-methylphenyl)pyridine-3-carboxamide] | 2 to 10
COc1cccc(C(=O)N[C@H]2C[C@H]3CC[C@@H](C2)N3c2ccc(C(=O)NCC(C)C)cn2)c1C [6-[3-endo-({[2-methyl-3-(methyloxy)phenyl]carbonyl}amino)-8-azabicyclo[3.2.1]oct-8-yl]-N-(2-methylpropyl)pyridine-3-carboxamide] | 1 to 2
COc1cccc(C(=O)N[C@H]2C[C@H]3CC[C@@H](C2)N3c2ccc(C(=O)NCCN3CCOCC3)cn2)c1C [6-[3-endo-({[2-methyl-3-(methyloxy)phenyl]carbonyl}amino)-8-azabicyclo[3.2.1]oct-8-yl]-N-(2-morpholin-4-ylethyl)pyridine-3-carboxamide] | 1 to 2
COc1cccc(C(=O)N[C@H]2C[C@H]3CC[C@@H](C2)N3c2ccc(C(=O)NCCN3CCCCC3)cn2)c1C [6-[3-endo-({[2-methyl-3-(methyloxy)phenyl]carbonyl}amino)-8-azabicyclo[3.2.1]oct-8-yl]-N-(2-piperidin-1-ylethyl)pyridine-3-carboxamide] | 1 to 2

Source: patent US8012956B2, “Tropane compounds” (Exelixis, Inc., priority 2007, dated 2011)
